For experiment [1], the system named is KV1.3. The note with it: cited from earlier work; for potency of native toxin on KV1.3: native toxins, ref [31]; for block of KV1.3 channels: ref [22], [30], [31]. From the text: Voltage-gated potassium (KV) channels are expressed in a wide range of cell types and tissues where they play key roles in physiological processes such as cell excitability, muscle contraction, and regulation of cardiac function. KV channels are composed of four α subunits that together form a functional channel. There are […] subfamilies of KV channels, with KV1.3 being one of eight subtypes in the KV1.x subfamily. […] We therefore measured the ability of rAgTx2 and rMgTx to block mouse KV1.3 (mKV1.3) and mouse KV1.1 (mKV1.1) channels stably expressed in L929 cells. […] The recombinant rAgTx2 and rMgTx inhibited mKV1.3 with simi ... || KV channels have diverse physiological functions; they play important roles in cell excitability, muscle contraction, regulation of neuronal and cardiac electrical functions, and propagation of action potentials. […] This has led to the hypothesis that compounds that selectively target KV1.3 channels could be used to treat autoimmune diseases. Consistent with this idea, ... || (+ 1 further places)

Experiment [2] has as its target T1, mouse KV1.3 (mKV1.3) channels stably expressed in L929 cells (Mus musculus, UniProt P16390).
T1 construct: expressed in transfected cells
Nature of the experiment: Inhibition of mKV1.3 currents, whole-cell patch clamp. The experiment is classed as cell-based. The note with it: room temperature, each data point mean of 3–5 determinations. The procedure:
(§1) L929 mouse fibroblast cells stably expressing mouse KV1.1 or mouse KV1.3 channels were kind gifts from Dr. George Chandy (University of California, Irvine). The cells were maintained in DMEM medium (Invitrogen, Carlsbad, CA, USA) supplemented with 10 IU/ml penicillin, 0.1 mg/ml streptomycin, 2 mM L-glutamine, 10% heat-inactivated fetal bovine serum, and 0.5 mg/ml G418 (EMD Chemicals, Gibbstown, NJ, USA). Freshly prepared buffy coats were purchased from the Gulf Coast Regional Blood Center (Houston, TX, USA) under a Baylor College of Medicine Institutional Review Board-approved protocol. Mononuclear cells were isolated from the buffy coats using Histopaque-1077 gradients (Sigma, St Louis, MI, USA) and used immediately or stored frozen in liquid nitrogen.
(§2) Experiments were conducted at room temperature using the whole-cell patch-clamp technique, as described previously. […] The bath solution contained (in mM): 160 NaCl, 4.5 KCl, 2 CaCl2, 1 MgCl2, 10 HEPES, pH 7.2, 300 mOsm. KV channel currents were elicited every 30 s by 200-ms depolarizing pulses from a holding potential of –80 mV to 40 mV. K d values and Hill coefficients were determined by fitting the Hill equation to the reduction of peak current measured at 40 mV.

In experiment [3] the target is T2, mouse KV1.1 (mKV1.1) channels stably expressed in L929 cells (Mus musculus, UniProt P16388).
T2 construct: expressed in transfected cells
T2 sequence (P16388 whole entry): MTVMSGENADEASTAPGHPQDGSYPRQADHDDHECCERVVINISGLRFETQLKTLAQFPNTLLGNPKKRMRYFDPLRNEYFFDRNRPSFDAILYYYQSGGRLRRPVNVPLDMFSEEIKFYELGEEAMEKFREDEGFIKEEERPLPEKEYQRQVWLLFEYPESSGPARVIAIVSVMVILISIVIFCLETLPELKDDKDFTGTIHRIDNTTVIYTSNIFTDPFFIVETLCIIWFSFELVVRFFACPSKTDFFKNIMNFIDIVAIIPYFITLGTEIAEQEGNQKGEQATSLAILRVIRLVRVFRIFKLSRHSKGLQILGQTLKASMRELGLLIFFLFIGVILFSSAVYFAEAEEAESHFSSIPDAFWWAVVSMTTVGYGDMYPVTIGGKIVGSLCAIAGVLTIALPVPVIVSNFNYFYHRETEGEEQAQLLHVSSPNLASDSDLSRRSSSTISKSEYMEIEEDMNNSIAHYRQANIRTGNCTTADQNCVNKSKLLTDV
Nature of the experiment: Inhibition of mKV1.1 currents, whole-cell patch clamp. Type of experiment: cell-based. The note with it: room temperature, 200-ms pulses from -80 mV to 40 mV every 30 s, Hill fit to reduction of peak current at 40 mV, each data point mean of 3–5 determinations. The procedure: as §1, §2

The test system of experiment [4] is human T lymphocytes. Put plainly: Proliferation of T lymphocytes, [3H] thymidine incorporation. The experiment is classed as cell-based. The note with it: freshly-isolated human T lymphocytes, 60 ng/ml anti-CD3 antibody (OKT3), pre-incubated 45 min at 37°C, cultured 72 h, [3H] thymidine last 16–18 h; three independent experiments with cells from different donors. Here is the method:
as §1
Mononuclear cells (10^6/ml) were plated into 96-well microplates and pre-incubated with peptidic KV1.3 blockers for 45 min at 37°C in RPMI medium (Invitrogen) supplemented with 100 IU/ml penicillin, 0.1 mg/ml streptomycin, 2 mM L-glutamine, 1 mM sodium pyruvate, 1% non-essential amino acids, 1% RPMI vitamins, […] β-mercaptoethanol, and 1% heat-inactivated fetal bovine serum. […] [^3H] thymidine incorporation into the DNA of proliferating cells was measured using a β-scintillation counter (Beckman Coulter, Brea, CA, USA).

Experiment [5] concerns acid sensing ion channel 1a. The note with it: ref [49]; cited from earlier work. From the text:
Recombinant production is the most cost-effective method for producing disulfide-rich peptides. The most common host for heterologous expression of venom peptides is E. coli, [47] but this often necessitates oxidative refolding of the peptides as the redox environment of the E. coli cytoplasm is not favorable for disulfide-bond formation. Higher yields of correctly folded toxin can often be obtained by exporting the peptides into periplasm of E. coli, where the cellular machinery for disulfide-bond formation is located [17]–[19]; however, the overall yield of recombi ...

Experiment [6] concerns KV1.1. The note with it: ref [22], [30], [31]; cited from earlier work. From the text:
We therefore measured the ability of rAgTx2 and rMgTx to block mouse KV1.3 (mKV1.3) and mouse KV1.1 (mKV1.1) channels stably expressed in L929 cells. […] The recombinant rAgTx2 and rMgTx inhibited mKV1.3 with simi ...

Experiment [7] has as its system T lymphocytes. The note with it: native toxins; ref [33], [34]; read-out: IC50 range previously described, T lymphocyte proliferation; cited from earlier work. Here is the method:
We next tested the ability of each recombinant peptides to block the proliferation of freshly-isolated human T lymphocytes, which are sensitive to KV1.3 channel blockers. […] These concentrations are within the range previously described for MgTx (∼5 nM) and AgTx2 (>5 nM), [34]. Thus the biological activities of rAgTx2 and rMgTx produced in P.pastoris are similar to the native toxins.

For experiment [8], the system named is human KV1.3 channel. The note with it: by blocking the central ion-conducting pore; ref [21], [22], [43]; cited from earlier work. The text has this:
Some α-KTxs are of significant interest because they potently block the human KV1.3 channel. […] However, despite their similar 3D fold and high sequence homology, the affinity of α-KTx toxins for KV1.3 varies over six orders of magnitude from picomolar to micromolar. Moreover, many of these toxins inhibit a number of different subtypes KV channels with high affinity, an undesirable attribute for peptides being considered for therapeutic use due to the ...

The mark [9] stands for this setting: 200-ms pulses from -80 mV to 40 mV every 30 s, Hill fit to reduction of peak current at 40 mV.

Bridge positions count the residues as written; N and C are the ends. Ends that are not written are not given here.

T1 sequence (P16390 whole entry): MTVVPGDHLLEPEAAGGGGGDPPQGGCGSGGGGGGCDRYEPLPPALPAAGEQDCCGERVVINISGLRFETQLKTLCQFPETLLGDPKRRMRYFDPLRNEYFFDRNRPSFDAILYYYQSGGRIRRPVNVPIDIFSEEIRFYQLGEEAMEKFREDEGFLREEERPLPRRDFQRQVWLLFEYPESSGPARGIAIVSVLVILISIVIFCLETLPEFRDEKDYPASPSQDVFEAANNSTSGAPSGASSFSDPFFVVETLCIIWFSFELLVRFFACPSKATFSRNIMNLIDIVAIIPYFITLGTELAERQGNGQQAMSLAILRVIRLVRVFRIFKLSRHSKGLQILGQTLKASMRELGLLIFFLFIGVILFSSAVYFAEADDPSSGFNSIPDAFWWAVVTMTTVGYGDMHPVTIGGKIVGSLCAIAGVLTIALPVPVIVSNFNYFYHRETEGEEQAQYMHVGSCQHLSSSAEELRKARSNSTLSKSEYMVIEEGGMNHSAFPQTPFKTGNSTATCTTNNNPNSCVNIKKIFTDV

For “BmKTX: native peptide, parent of ADWX-1 (VGINVKCKHSGQCLKPCKDAGMRFGKCINGKCDCTPK; ends and bridges not checked; cysteine pairing not given here; UniProt Q9NII7 23-59, looked up)”, the IC50 in experiment [1] (ref [44]) was 0.15 nM.

As for “EFHHHHHHTIINVKCTSPKQCLPPCKAQFGQSAGAKCMNGKCKCYPH (disulfide 15-37, 21-42, 25-44) [rMgTx, recombinant margatoxin]”, the IC50 was 0.097 ± 0.003 nM in experiment [2] (setting [9]), 0.396 ± 0.041 nM in experiment [3] and ~6 nM in experiment [4].

In the case of “PcTx1 (EDCIPKWKGCVNRHGDCCEGLECWKRRRSFEVCVPKTPKT; ends and bridges not checked; cysteine pairing not given here; UniProt P60514 1-40, looked up)”, the “block of acid sensing ion channel 1a” value in experiment [5] is on record as “potent blocker”.

As for “margatoxin (TIINVKCTSPKQCLPPCKAQFGQSAGAKCMNGKCKCYPH; UniProt P40755 1-39, looked up) [MgTx]”, in experiment [1], the “potency of native toxin on KV1.3” value is 30−100 pM and the “block of KV1.3 channels” value was “picomolar concentrations”. Further, the “block of KV1.1 channels” value in experiment [6] is reported as “picomolar concentrations”. For the same compound, the IC50 in experiment [7] was ~5 nM. In experiment [8], the “inhibition of KV1.3” value is “potently inhibit KV1.3”.

Take “EFHHHHHHTIINVKCTSPKQCLPPCKAQFGQSAGAACMNGKCKCYPH (disulfide 15-37, 21-42, 25-44) [rMgTx-K28A]”: in experiment [2] (K28A mutant, Hill fit to peak current at 40 mV), the IC50 was determined as 216 ± 24 nM.

Consider agitoxin-2 [AgTx2], for which, in experiment [1], the “potency of native toxin on KV1.3” value is reported as 200 pM and the “block of KV1.3 channels” value is reported as “picomolar concentrations”. Besides, the “block of KV1.1 channels” value in experiment [6] is reported as “picomolar concentrations”. For the same compound, the IC50 in experiment [7] was > 5 nM. Also, the “inhibition of KV1.3” value in experiment [8] is recorded as “potently inhibit KV1.3”.

Consider `CC[C@H](C)[C@@H]1NC(=O)[C@@H]2CSSC[C@@H]3NC(=O)[C@H](CCCCN)NC(=O)[C@H](CCCNC(=N)N)NC(=O)[C@H](CC(N)=O)NC(=O)[C@H](CCSC)NC(=O)[C@H](CSSC[C@H](NC(=O)[C@H](CO)NC(=O)[C@@H](NC(=O)[C@H](CC(N)=O)NC(=O)[C@@H](NC(=O)[C@@H]4CCCN4C(=O)[C@@H](NC(=O)CNC(=O)[C@H](Cc4c[nH]cn4)NC(=O)[C@H](Cc4c[nH]cn4)NC(=O)[C@H](Cc4c[nH]cn4)NC(=O)[C@H](Cc4c[nH]cn4)NC(=O)[C@H](Cc4c[nH]cn4)NC(=O)[C@H](Cc4c[nH]cn4)NC(=O)[C@H](Cc4ccccc4)NC(=O)[C@@H](N)CCC(=O)O)C(C)C)[C@@H](C)CC)C(C)C)C(=O)N[C@@H]([C@@H](C)O)C(=O)NCC(=O)N[C@@H](CO)C(=O)N4CCC[C@H]4C(=O)N[C@@H](CCC(N)=O)C(=O)N2)NC(=O)[C@H](CCCCN)NC(=O)CNC(=O)[C@H](Cc2ccccc2)NC(=O)[C@H](CCCNC(=N)N)NC(=O)[C@H](CCSC)NC(=O)CNC(=O)[C@H](C)NC(=O)[C@H](CC(=O)O)NC(=O)[C@H](CCCCN)NC(=O)[C@H](CSSC[C@@H](C(=O)N[C@H](C(=O)N2CCC[C@H]2C(=O)N[C@@H](CCCCN)C(=O)O)[C@@H](C)O)NC(=O)[C@H](Cc2c[nH]cn2)NC3=O)NC(=O)[C@@H]2CCCN2C(=O)[C@H](CCCCN)NC1=O` [rAgTx2, recombinant agitoxin-2], for which the IC50 in experiment [2] (setting [9]) was 0.201 ± 0.039 nM; in experiment [3], 0.144 ± 0.03 nM; in experiment [4], ~40 nM.

The values above are taken from publication PMC3530466, “Recombinant Expression of Margatoxin and Agitoxin-2 in Pichia pastoris: An Efficient Method for Production of KV1.3 Channel Blockers” (PLoS ONE, 2012).
